Results on 2 molecules are retold here after ChEMBL document CHEMBL1138268, “Synthesis and evaluation of cis-1-[4-(hydroxymethyl)-2-cyclopenten-1-yl]-5-[(124)I]iodouracil: a new potential PET imaging agent for HSV1-tk expression” (J Med Chem, 2007).

Data set [1] in a line: Cytotoxicity against MCA cells. It is filed as cell-based.
A short description of data set [2]: Cytotoxicity against MCA-TK cells. The class given is cell-based.
The nature of data set [3]: Metabolic stability in mouse liver microsomes after 30 min. The class given is ADME, Microsome. On the technique in general: Liver microsomes are vesicles of endoplasmic reticulum, rich in cytochrome P450 enzymes.
The nature of data set [4]: Metabolic stability in mouse serum after 6 hrs. The class given is ADME, cell-free.

The IC50 is the point on the concentration scale where inhibition reaches its midpoint. In the case of `Nc1nc2c(ncn2COC(CO)CO)c(=O)[nH]1` [GANCICLOVIR], the concentration for half-maximal inhibition (IC50) in data set [1] was 270 µM; in data set [2], 0.15 µM.

By half-life is commonly meant the time needed for the level to fall by half in the phase considered. For `O=c1[nH]c(=O)n([C@H]2C[C@H](O)[C@@H](CO)O2)cc1I` [IDOXURIDINE], the half-life in data set [3] is 1.24 h; in data set [4], 22.6 h.
